Results on one compound are retold here after patent US20250326815A1, “STAPLE-CONTAINING POLYPEPTIDES AND APPLICATION THEREOF” (Soter Biopharma Pte. Ltd., priority 2021, published 2025).

Data set [1] is described as follows: Plasma stability assay (PLS), mouse. The data set is classed as in vitro ADME. To be noted: pH 7.4, 37° C., read-out: PLS (mouse) T1/2. Here is the method: Stability of the assay compound in normal mouse plasma was studied.
1. Before the assay, the coagulated frozen plasma was thawed in a 37° C. water bath. The plasma was centrifuged at 4000 rpm for 5 minutes. If there were blood clots, the blood clots were removed. The pH value was adjusted to 7.4±0.1.
2. Preparation of assay compound solution: An assay compound was dissolved in DMSO to prepare a 100 μM solution.
3. 98 μL of blank control plasma was added to 2 μL of the assay compound solution (100 μM), so that the final concentration of the mixed solution reached 2 μM. The mixed solution was incubated in a 37° C. water bath.
4. 100 μL of H3PO4 solution and 800 μL of stop solution (a solution of 200 ng/ml tolbutamide and 200 ng/ml labetalol in 100% methanol) were added at each time point (0, 10, 30, 60 and 120 min), respectively, to precipitate proteins, and mixed thoroughly.
5. The sample was centrifuged at 4000 rpm for 20 min. 100 μL of supernatant from each well was taken for LC-MS/MS analysis.

The test system of another data set is STZ-NASH mouse model. In words: In vivo drug efficacy in STZ-NASH mouse model. Further details: species or system C57BL/6 mice. To be noted: STZ-NASH mice, 20 nmol/kg SC every two days, 5 weeks, endpoint. On the procedure: Drug efficacy of the assay substance in the NASH model induced by streptozotocin (STZ)+high-fat diet (HFD) in C57BL/6 mice was verified.
Modeling method: Newborn mice were subcutaneously injected with STZ (200 μg/mouse) within 48 hours after birth. After 4 weeks of breastfeeding, animals with a fasting blood glucose level of >12 mmol/L were selected and subjected to a HFD feeding for 6 consecutive weeks to finally establish the NASH model. Another 8 animals were selected without STZ injection and HFD feeding (normal control group).
Administration scheme: Administration was started after one week of HFD feeding, and the first day of administration was set as Day 1. Then, the mice were subcutaneously injected every two days for 5 consecutive weeks.
Detection at the endpoint of the assay: Pathological hematoxylin-eosin staining and picro sirius red staining were performed.

A value given as a limit tells only on which side of the number the result lay.

For `CC(C)C[C@H](NC(=O)[C@H](CC(C)C)NC(=O)[C@H](Cc1c[nH]c2ccccc12)NC(=O)[C@H](CCC(=O)O)NC(=O)[C@@H](NC(=O)[C@H](Cc1ccccc1)NC(=O)[C@H](CCC(=O)O)NC(=O)[C@@H]1CCCCNC(=O)CN(C(=O)COCCOCCNC(=O)COCCOCCNC(=O)CC[C@H](NC(=O)CCCCCCCCCCCCCCCCCCC(=O)O)C(=O)O)CC(=O)NCCCC[C@H](NC(=O)[C@H](CCC(=O)O)NC(=O)[C@H](CC(=O)O)NC(=O)[C@H](CC(C)C)NC(=O)[C@H](Cc2ccc(O)cc2)NC(=O)[C@H](CCCCN)NC(=O)[C@H](CO)NC(=O)[C@H](Cc2ccc(O)cc2)NC(=O)[C@H](CC(=O)O)NC(=O)[C@H](CO)NC(=O)[C@@H](NC(=O)[C@H](Cc2ccccc2)NC(=O)[C@@H](NC(=O)CNC(=O)[C@H](CCC(N)=O)NC(=O)C(C)(C)NC(=O)[C@@H](N)Cc2c[nH]cn2)[C@@H](C)O)[C@@H](C)O)C(=O)N[C@@H](CCCCN)C(=O)N[C@@H](C)C(=O)N1)C(C)C)C(=O)N[C@@H](CCC(=O)O)C(=O)NCC(=O)NCC(=O)N1CCC[C@H]1C(=O)N[C@@H](CO)C(=O)N[C@@H](CO)C(=O)NCC(N)=O` [WX001], the half-life at 2 μM in data set [1] is > 4.82 h. Further, in the data set with STZ-NASH mouse model, the Ballooning score is 0, the “Fibrosis (%)” value was 1.21%, the Inflammation score is given as 1.63 and the NAS score is recorded as 2.63. Moreover, the Steatosis score in the data set with STZ-NASH mouse model is 1.0.
